Holding throughout (format): cell-based, human
For data set [1], the system named is MM cell lines MM1.S, MM1.R, RPMI-8226 (RPMI) and U266. Kind of data set: Cell viability of MM cell lines (MTT / WST-8 assay). Particulars: 18 h; for cell viability of all MM cell lines tested as compared to untreated control cells: WIN-55 0.5-50 uM, JWH-133 0.05-1 mM. An excerpt:
(§1) Human multiple myeloma cell lines MM1.S, MM1.R, RPMI-8226 (RPMI) and U266 were purchased from American Type Culture Collection [(ATCC), LGC Standards, Manassas, USA]. Human primary cells were obtained from MM patients' bone marrow (BM) and healthy donors' peripheral blood (PB). PB samples were collected from buffy coats and leukapheresis products, previously mobilized with granulocyte colony stimulating factor (G-CSF). Hematopoietic progenitor cells (CD34+) were isolated from leukaphesesis samples, and B (CD19+) and T (CD3+) lymphocytes from buffy coats by positive immunomagnetic separation in the AutoMACS pro separator (Miltenyi Biotec, Bergisch Gladbach, Germany). For this purpose CD34-, CD19- and CD3-MACS microbead Human Kit (Miltenyi Biotec, Bergisch Gladbach, Germany). The purity of all isolated cells was higher than 95% in all cases. BM samples were obtained from five MM patients. In all cases, BM plasma cell infiltration was greater than 30%. The different cell subpopuplations from MM patients BM were not separated, but they were identified by flow cytometry using a suitable combination of antibodies: anti-CD64-FITC, anti-CD34-PE, anti-CD56-APC, anti-CD38-APC-H7, and anti-CD45-Pacific Blue (BD Biosciences, San Jose, Calif.).
Except if otherwise indicated, for the viability assays primary cells were incubated 18 hours, with vehicle (with <0.15% DMSO) or cannabinoid. Meanwhile, the time course assays cells were performed at 0, 2, 6, 18 and 24 h. For the analysis of SPT activity, cells were co-incubated for the first 6 hours with the SPT inhibitor, myriocin, and the cannabinoid, WIN-55 or JWH-133.
The working concentrations of cannabinoids were determined by dose-response curves (data not shown) and selected within the linear range between observed safe and hazardous levels. […]
Cell viability of cell lines and CD34+, CD19+ and CD3+ cells was measured using the Cell Counting Kit-8 (Dojindo Molecular Technologies, Gaithersburg, Md.). This assay is based on the reduction of salt WST-8 by a mitochondrial dehydrogenase in viable cells, resulting in a colored formazan product that can be measured spectrometrically at 450 nm. […] After treatment, 10 ul salt WST-8 [2-(4-lodophenyl)-3-(4-nitrophenyl)-5-(2,4-disulfophenyl)-2H-tetrazolium] was added to each well and incubated for an additional 2 h at 37° C., and then the absorbance of generated formazan was measured in a plate reader Multiskan™ Go Microplate (Thermo Fisher Scientific, Waltham, Mass., USA).
Firstly, we assessed the effect of cannabinoids WIN-55 and JWH-133 on cell viability. To this end, the cells were treated with increasing concentrations of cannabinoids, WIN-55 (0.5-50 uM) and JWH-133 (0.05-1 mM), for 18, 48 and 96 hours, and viability was analyzed by MTT assays and flow cytometry. […]
A general note: Tetrazolium assays rely on reduction of a dye to a coloured formazan, in cell work by metabolically active cells.

Data set [2] has as its system myeloma plasma cells (MPCs). Kind of data set: Ex vivo viability of myeloma plasma cells from bone marrow of MM patients (flow cytometry, 7-AAD).
Description: as §1, with “BM samples were obtained from five MM patients. In all cases, BM plasma cell infiltration was greater than 30%. The different cell subpopuplations from MM patients BM were not separated, but they were identified by flow cytometry using a suitable combination of antibodies: anti-CD64-FITC, anti-CD34-PE, anti-CD56-APC, anti-CD38-APC-H7, and anti-CD45-Pacific Blue (BD Biosciences, San Jose, Calif.).” left out
(§2) Further, cell viability of bone marrow cell populations from patients was assessed by flow cytometry using 7-amino-actinomycin D [(7-AAD), BD Biosciences] together with a combination of monoclonal antibodies against myeloma-associated antigens (anti-CD56-APC, anti-CD45-Pacific Blue, and anti-CD38-APC-H7 [BD Biosciences]) and antibodies to discriminate the granulomonocytic (anti-CD64-FITC) and lymphocytic (anti-CD45-Pacific Blue) populations. […] Fluorescent intensity was quantified and analyzed using Infinicyt™ Software (Cytognos, Salamanca, Spain). […]

Data set [3] has as its system hematopoietic stem cells (CD34+). In words: Cell viability of CD34+ hematopoietic stem cells from healthy donors (MTT). The settings on record: any tested dose.
For a further data set, the system named is Granulocytes. In words: Viability of normal residual granulocytes in bone marrow samples of MM patients (flow cytometry). Particulars: all doses tested.
Description: as §1, with “BM samples were obtained from five MM patients. In all cases, BM plasma cell infiltration was greater than 30%. The different cell subpopuplations from MM patients BM were not separated, but they were identified by flow cytometry using a suitable combination of antibodies: anti-CD64-FITC, anti-CD34-PE, anti-CD56-APC, anti-CD38-APC-H7, and anti-CD45-Pacific Blue (BD Biosciences, San Jose, Calif.).” left out
as §2
In general terms: In flow cytometry, cells or beads pass a laser one at a time.

In another data set the test system is lymphocytes. In words: Viability of normal residual lymphocytes in bone marrow samples of MM patients (flow cytometry). Particulars: for viability of lymphocytes: all doses except the highest dose tested; for dose at which lymphocytes were affected (highest dose tested): bone marrow of MM patients.
Description: as §1
Further, cell viability of bone marrow cell populations from patients was assessed by flow cytometry using 7-amino-actinomycin D [(7-AAD), BD Biosciences] together with a combination of monoclonal antibodies against myeloma-associated antigens (anti-CD56-APC, anti-CD45-Pacific Blue, and anti-CD38-APC-H7 [BD Biosciences]) and antibodies to discriminate the granulomonocytic (anti-CD64-FITC) and lymphocytic (anti-CD45-Pacific Blue) populations. Cells were incubated for 15 minutes at room temperature in the dark with suitable antibodies and 7-AAD, and after washing a total of 100 000 cells were acquired on FACSCanto II flow cytometer (BD Biosciences). Fluorescent intensity was quantified and analyzed using Infinicyt™ Software (Cytognos, Salamanca, Spain). Additionally, cell viability of MM cell lines and the peripheral blood CD34+, CD3+ and CD19+ cell populations from healthy donors was also analyzed by flow cytometry using 7-AAD, with the same protocol above described.
Once determined the antiproliferative effect of cannabinoids on tumor cells, both primary and cell lines, our aim was to test whether or not these drugs could also affect the viability of the counterpart normal cells, both normal residual populations from bone marrow samples obtained from MM patients as well as hematopoietic stem cells (CD34+) from healthy donors. […] Granulocytes and lymphocytes, were also unaffected by both cannabinoids, except for the lymphocytes at the highest doses tested, 50 uM for WIN-55 and 1 mM for JWH-133 (FIG. 2a,b).

The test system of the next data set is B-cells (CD19+). Kind of data set: Cell viability of B-cells (MTT).
A further data set concerns T-cells (CD3+). In words: Cell viability of T-cells (MTT).
The next data set deals with blasts from AML patients. In words: Cell viability of blasts from AML patients (MTT).

The text below walks through data of patent publication US20180353461A1, “USE OF CANNABINOIDS AS CERAMIDE-GENERATING ANTICANCER AGENTS IN TUMORS OF THE HEMATOPOIETIC AND LYMPHOID TISSUES” (priority 2014, published 2018).

Structures are written as SMILES.

Turning to `CCCC(C)(C)c1ccc2c(c1)OC(C)(C)[C@@H]1CC=C(C)C[C@@H]21` [JWH-133, (6aR,10aR)-3-(1,1-Dimethylbutyl)-6a,7,10,10a-tetrahydro-6,6,9-trimethyl-6H-dibenzo [b,d] pyran], in data set [1], the “sensitivity pattern of the MM cell lines” value is reported as “decreasing from MM1.R, RPMI, MM1.S to U266” and the “cell viability of all MM cell lines tested as compared to untreated control cells” value is given as “significantly reduced”. Further, in data set [2] (less pronounced as compared to WIN-55), the “viability of MPCs” value is recorded as “decreased viability”. The “cell viability of hematopoietic stem cells (CD34+)” value in data set [3] was “remained unaffected”. For the same molecule, the viability of granulocytes result in the data set with Granulocytes is reported as “unaffected”. Further, in the data set with lymphocytes, the viability of lymphocytes entry is given as “unaffected” and the “dose at which lymphocytes were affected (highest dose tested)” value came out at 1 mM. For the same molecule, the “viability of B-cells” value in the data set with B-cells (CD19+) was “decreased viability”. The “viability of T-cells” value in the data set with T-cells (CD3+) is “remained unaffected”. In the data set on blasts from AML patients, the “cell viability of blasts from AML patients” value was “reduce the cell viability”.
As to `CS(=O)(=O)O.Cc1c(C(=O)c2cccc3ccccc23)c2cccc3c2n1[C@H](CN1CCOCC1)CO3` [WIN-55, (R)-(+)-[2,3-dihydro-5-methyl-3-(4-morpholinylmethyl)-pyrrolo-[1,2,3]-1,4-benzoxazin-6-yl]-1-naphthalenylmethanone mesylate], in data set [1], the “sensitivity pattern of the MM cell lines” value was “MM1R and RPMI were the most sensitive”; the “cell viability of all MM cell lines tested as compared to untreated control cells” value is given as “significantly reduced”. Moreover, the “decrease in cell viability of MPCs as compared to control (vehicle-treated) cells” value in data set [2] (50 uM, bone marrow of MM patients) is recorded as “up to 85%”. For the same molecule, in data set [3], the “cell viability of hematopoietic stem cells (CD34+)” value is reported as “remained unaffected”. In addition, the viability of granulocytes entry in the data set on Granulocytes is on record as “unaffected”. Also, in the data set on lymphocytes, the viability of lymphocytes entry is recorded as “unaffected” and the “dose at which lymphocytes were affected (highest dose tested)” value is 0.05 mM. Also, the “viability of B-cells” value in the data set with B-cells (CD19+) was “decreased viability”. For the same molecule, the “viability of T-cells” value in the data set on T-cells (CD3+) is “remained unaffected”. Moreover, the “cell viability of blasts from AML patients” value in the data set with blasts from AML patients was “reduce the cell viability”.
